Data from paper PMC12040169 (PLOS Biology, 2025).

assay: in vitro; settings: human, hela cells

Compound	viability at 28.5 h, 10 µM [%]
O=C(/C=C/c1ccc(N2N=N2)cc1)/C=C/c1ccc(N2N=N2)cc1 [CBK261638]	105

same assay, conditions: human, hela cells, % viability

Compound	viability at 28.5 h, 10 µM [%]
Oc1ccc(SCCCCCN2CCCCC2)cc1 [CBK261488]	92.3
Nc1ccc(S(=O)(=O)c2ccc(-n3c(=O)c4cc5c(=O)n(-c6ccc(S(=O)(=O)c7ccc(N)cc7)cc6)c(=O)c5cc4c3=O)cc2)cc1 [CBK261490]	92
COc1ccccc1NS(=O)(=O)c1cc(S(=O)(=O)Nc2ccccc2OC)c(C)cc1C [CBK261493]	92
CN1CCN(CCC(=O)N/N=C/c2cccc(Br)c2)CC1 [CBK261496]	96.6
CN1CCN(CCC(=O)N/N=C/c2ccccc2O)CC1 [CBK261497]	93.1
COc1cc(/C=N/NC(=O)CCN2CCN(C)CC2)cc(OC)c1O [CBK261500]	100
COc1cc(/C=N\NC(=O)CN2CCN(C)CC2)cc2c1OCO2 [CBK261503]	109
COc1cc(/C=N/NC(=O)CCN2CCN(C)CC2)cc2c1OCO2 [CBK261504]	116
COc1ccccc1CC(CC(=O)O)C(=O)O (stereo not shown) [CBK261508]	91.6
O=C(CC(C(=O)O)C1CCCO1)Nc1ccc(Cl)cc1Cl (stereo not shown) [CBK261509]	86.2
NS(=O)(=O)c1ccc(N2N=C(c3ccccc3)CC2c2ccccc2)cc1 (stereo not shown) [CBK261511]	95.9
CC1(C)NC(C)(C)C(=N\O)/C(=N\O)C/1=N\O [CBK261512]	110
CC1=[N+]([O-])C2(N)CCc3nonc3C2(O)C1 (stereo not shown) [CBK261513]	87.9
CC1(N2CCOCC2)CC2(O)C(=[N+]1[O-])CCc1c2no[n+]1[O-] (stereo not shown) [CBK261516]	90.5
CN(/N=C\c1ccc([N+](=O)[O-])cc1)c1nc(-c2ccccc2)cc(-c2ccccc2)n1 [CBK261517]	88.9
O=[N+]([O-])c1ccccc1CN1CCN(C/C=C/c2ccccc2)CC1 [CBK261518]	87.1
CN1CCN(c2c(C(=O)O)cc([N+](=O)[O-])cc2[N+](=O)[O-])CC1 [CBK261519]	100
CC(C)(C)c1cc(CN2CCN(c3ccccn3)CC2)cc(C(C)(C)C)c1O [CBK261520]	117
O=C(CN1CCCCC1)NN(Cc1ccccc1)c1ccccc1 [CBK261521G]	103
COc1ccc(CN2CCC(O)CC2)c(OC)c1 [CBK261522]	95.9
c1ccc(Oc2cccc(CN3CCN(c4ccccn4)CC3)c2)cc1 [CBK261523]	102

Compound	viability at 28.5 h, 10 µM [%]
O=Cc1c(-[n+]2ccc(-c3ccncc3)cc2)nc([O-])n1-c1ccccc1 [CBK261529]	108
CN1CCCN(Cc2cccc3ccccc23)CC1 [CBK261531]	96.4
O=C(O)CCCC(=O)Nc1ccc(C(=O)O)cc1 [CBK261534]	86.5
COc1cc(CN2CCN(c3ccccn3)CC2)ccc1O [CBK261537]	118
O=C(O)c1cccc(NC(=O)C2CCCCC2C(=O)O)c1 (stereo not shown) [CBK261538]	96.6
COc1cc(CN2CCCN(C)CC2)c([N+](=O)[O-])cc1OC [CBK261539]	90.2
CCN1CCN(Cc2c[nH]c3ccccc23)CC1 [CBK261540]	99.4
Cc1cccc(NC(=S)NNC(=O)CCC(=O)O)c1 [CBK261542]	85.1
CC(=O)Nc1ccc(S(=O)(=O)N2CCN(C/C=C/c3ccccc3)CC2)cc1 [CBK261545]	114
O=C(O)CCC(=O)NNc1ccccc1[N+](=O)[O-] [CBK261546]	95.7
O=[N+]([O-])c1cc2c(cc1CN1CCN(Cc3ccccc3)CC1)OCO2 [CBK261548]	94.7
CN1CCN(C(=S)SCC(=O)O)CC1 [CBK261549C]	92.8
COc1cc(CN2CCN(C/C=C/c3ccccc3)CC2)c([N+](=O)[O-])cc1OC [CBK261550]	86.4
O=C(Nc1ccccc1C(=O)Nc1ccccc1C(=O)O)c1ccccc1 [CBK261551]	91.1
Cc1ccnc(NS(=O)(=O)c2ccc(NS(C)(=O)=O)cc2)n1 [CBK261552]	100
COc1ccc(OC)c(CN2CCCN(C)CC2)c1 [CBK261554]	96.1
CN1CCCN(Cc2ccc([N+](=O)[O-])s2)CC1 [CBK261558]	94
Cc1cc(C)c(NC(=O)C2CCCCN2C23CC4CC(CC(C4)C2)C3)c(C)c1 (stereo not shown) [CBK261559C]	92.6
CCOC(=O)C1CCCCN1Cc1ccc(OC)c(O)c1 (stereo not shown) [CBK261560]	98.3
CCN1CCN(Cc2ccccc2[N+](=O)[O-])CC1 [CBK261561]	109
Nc1ccc(-c2cc(N)n(-c3ccc(Oc4ccccc4)c(S(=O)(=O)O)c3)n2)cc1 [CBK261563]	96.1

Compound	viability at 28.5 h, 10 µM [%]
CN1CCC(N(C)Cc2ccc3c(c2)OCO3)CC1 [CBK261564]	86.8
CN1CCC(N(C)Cc2ccccc2[N+](=O)[O-])CC1 [CBK261565]	93.8
O=C(O)C1CCCCC1C(=O)Nc1cccc2ccccc12 (stereo not shown) [CBK261569]	101
COc1ccc(N2CCN(Cc3cc([N+](=O)[O-])ccc3Cl)CC2)cc1 [CBK261571]	88.9
CCOc1cc(CN2CCN(C/C=C/c3ccccc3)CC2)ccc1OC [CBK261573]	87.2
COc1cc(CN2CCN(Cc3ccccc3)CC2)cc([N+](=O)[O-])c1O [CBK261574]	99
C/C(=N\NC(N)=S)C(=O)O [CBK261575]	102
CN1CCC(N(C)Cc2coc3ccccc3c2=O)CC1 [CBK261578]	103
CCN(CC)C(=O)C1CCCN(Cc2cccc(Oc3ccccc3)c2)C1 (stereo not shown) [CBK261581]	92.6
COc1cc(C2C(C#N)=C(N)OC3=C2C(=O)CC(c2ccccc2)C3)cc(Br)c1O (stereo not shown) [CBK261587]	87.1
O=C(CN1CCCCCC1)N/N=C/c1ccccc1Cl [CBK261589]	89.4
NC(=S)NNC(=O)Nc1ccccc1 [CBK261595]	96.6
CC(=O)Nc1cccc(NC(=O)CCCC(=O)O)c1 [CBK261598]	97.9
c1ccc(CCNC2CCCc3c2[nH]c2ccc(C4CCCCC4)cc32)cc1 (stereo not shown) [CBK261602C]	90.7
O=P(O)(CNCc1ccccc1)CNCc1ccccc1 [CBK261604C]	118
COC(=O)CCC(=O)NNC(=O)c1cccc(Br)c1 [CBK261606]	107
O=C(COC(=O)c1ccc2c(c1)C(=O)N(c1ccc(Oc3ccccc3)cc1)C2=O)c1ccc(Br)cc1 [CBK261607]	105
O=C(CNC(=O)c1ccccc1)OCC(=O)c1ccc(Cl)c(Cl)c1 [CBK261611]	93.9
COc1ccc(/C(C)=N\NC(=O)c2cccc(Br)c2)cc1 [CBK261612]	100
Cc1cc(-c2ccc(/N=C/c3cccc(O)c3O)c(C)c2)ccc1/N=C/c1cccc(O)c1O [CBK261613]	82.6
NS(=O)(=O)c1ccc(NC(=O)/C=C/c2cccc([N+](=O)[O-])c2)cc1 [CBK261616]	99.5

Compound	viability at 28.5 h, 10 µM [%]
Oc1ccc2ccccc2c1/C=N/c1ccc(-c2cc(-c3ccc(/N=C/c4c(O)ccc5ccccc45)cc3)ncn2)cc1 [CBK261621]	104
COc1ccc2cc(/C=C(\C#N)c3nc(-c4cc5ccccc5oc4=O)cs3)c(Cl)nc2c1 [CBK261623]	93.9
O=C(N/N=C/c1ccc(O)cc1)C(=O)N/N=C/c1ccc(O)cc1 [CBK261625]	88.7
Oc1ccc(Cl)cc1/C=N/c1ccc(-c2cc(-c3ccc(/N=C/c4cc(Cl)ccc4O)cc3)ncn2)cc1 [CBK261626]	101
CC1(C)C/C(=N/O)c2cc3c(nc2C1)CC(C)(C)C/C3=N\O [CBK261629]	106
CCOC(=O)c1ccccc1NC(=O)CCC(=O)O [CBK261631]	93.5
C/C(=N\Nc1nc(C(=O)O)cs1)c1ccccc1 [CBK261633]	88.7
COc1ccc2cc(/C=C(\C#N)c3nc(-c4cc5c(ccc6ccccc65)oc4=O)cs3)c(Cl)nc2c1 [CBK261636]	94
O=C(O)CCC(=O)Nc1ccc(-c2ccc([N+](=O)[O-])cc2)cc1 [CBK261637]	105
Oc1ccc(/C=N/N=C/c2ccc(O)c(O)c2)cc1O [CBK261641]	95
CCOC(=O)c1c(NC(=O)CN2CCCCC2)sc2c1CCCC2O (stereo not shown) [CBK261644]	90.5
CCN(CC)CC(=O)Nc1sc2c(c1C#N)CCCC2 [CBK261646]	102
COc1ccccc1NC(=O)/C(=C\c1cccnc1)NC(=O)c1ccccc1 [CBK261649]	89.6
O=C(O)/C=C/c1cccc(/C=C/C(=O)O)c1 [CBK261650]	89.9
c1ccc(C[n+]2cn3cc(-c4ccccc4)nc3[n-]2)cc1 [CBK261654]	94
COc1ccc(OC(=O)c2cc(S(=O)(=O)N3CCOCC3)ccc2Cl)cc1 [CBK261655]	88.9
C(=C/c1ccccc1)/C=N/c1ccc2nc(-c3ccc(/N=C/C=C/c4ccccc4)cc3)[nH]c2c1 [CBK261656]	87.9
O=C(COC(=O)c1cc(S(=O)(=O)N2CCCCC2)ccc1Cl)c1ccccc1 [CBK261657]	86
O=C(NNC(=O)c1ccccc1C(=O)O)c1cccc(Cl)c1 [CBK261658]	94.7
Cc1ccc2nc(-c3ccc(/N=C/c4ccc(/C=N/c5ccc(-c6nc7ccc(C)cc7s6)cc5)cc4)cc3)sc2c1 [CBK261661]	87.1

same assay, conditions: human, hela cells, % viability, bulk resorufin, single well

Compound	viability at 28.5 h, 10 µM [%]
O=[N+]([O-])c1ccc(Cl)cc1CN1CCN(c2ccccc2)CC1 [CBK261556]	89.3
COc1ccccc1N1C(=O)NC(=O)/C(=C/NCCCO)C1=O [CBK261618]	87.8
CCN(CC)CCN/C=C1/C(=O)NC(=O)N(Cc2ccccc2)C1=O [CBK261624]	88.9
COc1cc(/C=N/O)ccc1Oc1ccc([N+](=O)[O-])cc1[N+](=O)[O-] [CBK261651]	92.5
